Test results: patent US20100104644A1, “Compositions and Methods for Treating or Preventing Ophthalmic Disease” (University of Florida Research Foundation, Inc., priority 2006, published 2010)
“Also recorded” adds a separate entry of the source.

How the values were obtained:
[1] = tested on: purified wild-type (WT) opsin; assay: Opsin regeneration: pigment formation of purified WT opsin with 11-cis-retinal in the presence of compound; format: biochemical; details: for inhibition of pigment formation / binding of 11-cis-retinal to opsin: in vitro
[2] = tested on: purified wt (wild-type) opsin; assay: 500 nm absorbing pigment formation on addition of compound alone to purified opsin; format: biochemical; details: compound added to purified WT opsin without 11-cis-retinal
P23H opsin = assay: P23H yield in stable cells expressing opsin treated with compound; format: cell-based
Description: Stable cell lines expressing opsin protein were generated using the Flp-In T-Rex system. The stable cells were grown in DMEM high glucose media supplemented with 10% (v/v) fetal bovine serum, antibiotic/antimycotic solution, […] blasticidin and hygromycin at 37° C. in presence of 5% CO2. For all the experiments the cells were allowed to reach confluence and were induced to produce opsin with 1 μg/ml tetracycline after change of media and then compounds were added. The plates were incubated for 48 hours after which the cells were harvested.
Proteins were separated on SDS-PAGE gels and western blotted as described in Noorwez et al. (2004).

SMILES | % Increase in P23H Yield (P23H opsin; Table 1) [%] | % Increase in P23H Yield (P23H opsin; Table 2, with spread) [%] | also measured
CC(=O)c1c(C)n[nH]c1C [Compound 1, 1-(3,5-dimethyl-1H-pyrazol-4-yl)ethanone] | 31 | 30 ± 5 | inhibition of pigment formation of WT opsin with 11-cis-retinal ([1]; 2 mM and 5 mM concentrations): inhibited; inhibition of pigment formation / binding of 11-cis-retinal to opsin ([1]; listed as SN 10011): inhibits the binding of 11-cis-retinal to opsin in vitro; inhibition of pigment formation / binding of 11-cis-retinal to opsin ([1]; listed as SN10011): reversibly inhibits binding of 11-cis-retinal; also recorded: significant effect on inhibition of pigment formation; formation of 500 nm absorbing pigment by the compound with opsin ([2]; listed as SN10011): No pigment was formed; also recorded: no 500 nm absorbing pigment was generated
N#Cc1cn(Cc2ccco2)c(=O)[nH]c1=O [Compound 2, 1-furan-2-ylmethyl-2,4-dioxo-1,2,3,4-tetrahydro-pyrimidine-5-carbonitrile] | 43 | 40 ± 7 | –
O=[PH](O)c1ccccc1 [Compound 3, phenyl-phosphinic acid] | 32 | 40 ± 3 | –
Cc1cc([N+](=O)[O-])ccn1 [Compound 4, 2-methyl-4-nitro-pyridine] | 24 | 25 ± 8 | –
O=C1NC(CCO)C(=O)NC1CCO (stereo not shown) [Compound 5, 3,6-bis-(2-hydroxyethy)-piperazine-2,5-dione] | 15 | 30 ± 10 | –
CC(C)N(CC#N)C(C)C [Compound 6, diisopropylaminoacetonitrile] | 28 | 25 ± 3 | –
N#Cc1ccc2c(c1)OCO2 [Compound 27009, 3,4-Methylenedioxybenzonitrile] | – | 20 ± 5 | –
Cn1cc(C(N)=O)ccc1=N [Compound 66688, 6-imino-1-methyl-1,6-dihydro-3-pyridinecarboxamine] | – | 40 ± 9 | –
Nn1nnc2ccccc21 [Compound 114498, 1H-1,2,3-benzotriazol-1-amine] | – | 30 ± 6 | –
Oc1ccccc1C=Nn1cnnc1 [Compound 121968, 4-Salicylideneamino-1,2,4-triazol] | – | 29 ± 5 | –
CC(=O)/C=C/C1=C(C)CCCC1(C)C [β-ionone, reference compound] | – | – | inhibition of pigment formation / binding of 11-cis-retinal to opsin [1]: inhibit binding of retinal to the site; also recorded: inhibited opsin regeneration in a dose dependent manner; formation of 500 nm absorbing pigment by the compound with opsin [2]: does not form a light absorbing pigment with opsin; also recorded: does not itself form a 500 nm absorbing pigment with opsin; also recorded: no 500 nm absorbing pigment was formed
